These results are taken from PubChem BioAssay AID1259407 (Chemical Carcinogenesis Research Information System (CCRIS), 2018).

The data set deals with CCRIS mutagenicity, Ames/micronucleus/aberration tests. The experiment in a line: CCRIS mutagenicity studies.
The mark [1] stands for this setting: Test System: AMES SALMONELLA TYPHIMURIUM, Strain/Indicator: TA98, Metabolic Activation: NONE, Method: PREINCUBATION
Where [2] appears, read: Test System: AMES SALMONELLA TYPHIMURIUM, Strain/Indicator: TA100, Metabolic Activation: NONE, Method: PREINCUBATION
The mark [3] stands for this setting: Test System: AMES SALMONELLA TYPHIMURIUM, Strain/Indicator: TA1535, Metabolic Activation: NONE, Method: PREINCUBATION
Where [4] appears, read: Test System: AMES SALMONELLA TYPHIMURIUM, Strain/Indicator: TA1535, Metabolic Activation: NONE, Method: STANDARD PLATE.
[5] abbreviates: Test System: AMES SALMONELLA TYPHIMURIUM, Strain/Indicator: TA98, Metabolic Activation: NONE, Method: STANDARD PLATE.
Where [6] appears, read: Test System: AMES SALMONELLA TYPHIMURIUM, Strain/Indicator: TA100, Metabolic Activation: NONE, Method: STANDARD PLATE.
Setting [7] is: Test System: AMES SALMONELLA TYPHIMURIUM, Strain/Indicator: TA1537, Metabolic Activation: NONE, Method: STANDARD PLATE.

Activity calls are given as the source filed them. The rule behind the calls is not given here.

In the case of `Cc1ccc(N)c(N)c1`, the mutagenic call runs as follows: (Test System: AMES SALMONELLA TYPHIMURIUM, Strain/Indicator: TA97, Metabolic Activation: HAMSTER, LIVER, S-9, AROCLOR 1254 (10%), Method: PREINCUBATION) “inactive; negative”; (Test System: AMES SALMONELLA TYPHIMURIUM, Strain/Indicator: TA97, Metabolic Activation: NONE, Method: PREINCUBATION) “inactive; negative”; (Test System: AMES SALMONELLA TYPHIMURIUM, Strain/Indicator: TA97, Metabolic Activation: RAT, LIVER, S-9, AROCLOR 1254 (10%), Method: PREINCUBATION) “active; positive”; (Test System: AMES SALMONELLA TYPHIMURIUM, Strain/Indicator: TA98, Metabolic Activation: HAMSTER, LIVER, S-9, AROCLOR 1254 (10%), Method: PREINCUBATION) “active; positive”; under setting [1], “inactive; negative”; (Test System: AMES SALMONELLA TYPHIMURIUM, Strain/Indicator: TA98, Metabolic Activation: RAT, LIVER, S-9, AROCLOR 1254 (10%), Method: PREINCUBATION) “active; positive”. The mutagenic call (Test System: AMES SALMONELLA TYPHIMURIUM, Strain/Indicator: TA100, Metabolic Activation: HAMSTER, LIVER, S-9, AROCLOR 1254 (10%), Method: PREINCUBATION) is “active; positive”; the mutagenic call under setting [2] is “inactive; negative”; the mutagenic call (Test System: AMES SALMONELLA TYPHIMURIUM, Strain/Indicator: TA100, Metabolic Activation: RAT, LIVER, S-9, AROCLOR 1254 (10%), Method: PREINCUBATION) was “active; positive”; the mutagenic call (Test System: AMES SALMONELLA TYPHIMURIUM, Strain/Indicator: TA1535, Metabolic Activation: HAMSTER, LIVER, S-9, AROCLOR 1254 (10%), Method: PREINCUBATION) was “inactive; negative”; the mutagenic call under setting [3] was “inactive; negative”; the mutagenic call (Test System: AMES SALMONELLA TYPHIMURIUM, Strain/Indicator: TA1535, Metabolic Activation: RAT, LIVER, S-9, AROCLOR 1254 (10%), Method: PREINCUBATION) is “inactive; negative”.
Regarding `Cc1cc2c(C)c3ccccc3nc2c2ccccc12`, the mutagenic call was “active; positive” (Test System: AMES SALMONELLA TYPHIMURIUM, Strain/Indicator: TA97A, Metabolic Activation: NONE, Method: PREINCUBATION); “inactive; negative” under setting [1]; “active; positive” under setting [2]; “active; positive” (Test System: AMES SALMONELLA TYPHIMURIUM, Strain/Indicator: TA102, Metabolic Activation: NONE, Method: PREINCUBATION).
On to `O=C1NC2(CCCCC2)C(=O)N1CCN1CC1`, for which, under setting [4], the mutagenic call is “active; positive”.
In the case of `C[As](C)O`, the mutagenic call (End Point: IN VITRO CHROMOSOMAL ABERRATIONS, Test System: CHINESE HAMSTER V79 CELLS, Metabolic Activation: NONE) is “active; positive (structural and ploidy changes)”.
`O=P(O)(O)OP(=O)(O)OP(=O)(O)O`: the mutagenic call is, setting by setting: under setting [1], “inactive; negative”; (Test System: AMES SALMONELLA TYPHIMURIUM, Strain/Indicator: TA98, Metabolic Activation: RAT, LIVER, S-9, KC 500, Method: PREINCUBATION) “inactive; negative”; under setting [2], “inactive; negative”; (Test System: AMES SALMONELLA TYPHIMURIUM, Strain/Indicator: TA100, Metabolic Activation: RAT, LIVER, S-9, KC 500, Method: PREINCUBATION) “inactive; negative”; under setting [3], “inactive; negative”; (Test System: AMES SALMONELLA TYPHIMURIUM, Strain/Indicator: TA1535, Metabolic Activation: RAT, LIVER, S-9, KC 500, Method: PREINCUBATION) “inactive; negative”. For the same molecule, the mutagenic call was “inactive; negative” (Test System: AMES SALMONELLA TYPHIMURIUM, Strain/Indicator: TA1537, Metabolic Activation: NONE, Method: PREINCUBATION); “inactive; negative” (Test System: AMES SALMONELLA TYPHIMURIUM, Strain/Indicator: TA1537, Metabolic Activation: RAT, LIVER, S-9, KC 500, Method: PREINCUBATION); “inactive; negative” (Test System: AMES SALMONELLA TYPHIMURIUM, Strain/Indicator: TA1538, Metabolic Activation: NONE, Method: PREINCUBATION); “inactive; negative” (Test System: AMES SALMONELLA TYPHIMURIUM, Strain/Indicator: TA1538, Metabolic Activation: RAT, LIVER, S-9, KC 500, Method: PREINCUBATION); “inactive; negative” (Test System: E. COLI, Strain/Indicator: WP2 UVRA, Metabolic Activation: NONE, Method: PREINCUBATION); “inactive; negative” (Test System: E. COLI, Strain/Indicator: WP2 UVRA, Metabolic Activation: RAT, LIVER, S-9, KC 500, Method: PREINCUBATION).
Take `Cc1ccc(-c2nc3n(c2[N+](=O)[O-])CCS3)cc1`: the mutagenic call is, setting by setting: under setting [5], “inactive; negative”; under setting [6], “active; positive”; under setting [4], “inactive; negative”; under setting [7], “inactive; negative”; (Test System: AMES SALMONELLA TYPHIMURIUM, Strain/Indicator: TA1538, Metabolic Activation: NONE, Method: STANDARD PLATE) “inactive; negative”.
As for `CCOC(=O)N(CCCC(=O)c1cccnc1)N=O`, the mutagenic call under setting [2] was “active; positive”.
On to `O=C(CBr)NCc1ccccc1`, for which the mutagenic call was “active; positive” (Test System: AMES SALMONELLA TYPHIMURIUM, Strain/Indicator: TA100, Metabolic Activation: MOUSE, LIVER, S-9, AROCLOR 1254, Method: STANDARD PLATE) and “inactive; negative” under setting [6].
Turning to `[O]c1nccc(=O)[nH]1`, the mutagenic call under setting [6] is “active; positive”.
As for `C[C@]12CC[C@H](OC(=O)/C=C/c3cccc(N(CCCl)CCCl)c3)CC1=CC[C@@H]1[C@@H]2CC[C@]2(C)NC(=O)CC[C@@H]12`, the mutagenic call reads like this: under setting [5], “inactive; negative”; (Test System: AMES SALMONELLA TYPHIMURIUM, Strain/Indicator: TA98, Metabolic Activation: RAT, LIVER, S-9, AROCLOR 1254, Method: STANDARD PLATE) “inactive; negative”; under setting [6], “inactive; negative”; (Test System: AMES SALMONELLA TYPHIMURIUM, Strain/Indicator: TA100, Metabolic Activation: RAT, LIVER, S-9, AROCLOR 1254, Method: STANDARD PLATE) “inactive; negative”; under setting [4], “active; positive”; (Test System: AMES SALMONELLA TYPHIMURIUM, Strain/Indicator: TA1535, Metabolic Activation: RAT, LIVER, S-9, AROCLOR 1254, Method: STANDARD PLATE) “active; positive”. Also, the mutagenic call under setting [7] was “inactive; negative” and the mutagenic call (Test System: AMES SALMONELLA TYPHIMURIUM, Strain/Indicator: TA1537, Metabolic Activation: RAT, LIVER, S-9, AROCLOR 1254, Method: STANDARD PLATE) was “inactive; negative”.
Take `C[C@@H](O)[C@H](N)C(=O)O`: the mutagenic call (Test System: AMES SALMONELLA TYPHIMURIUM, Strain/Indicator: TA98, Metabolic Activation: RAT LIVER S-9, CHLOROPHENE, Method: STANDARD PLATE (COMPOUND HEATED AT 250 DEGREES CELSIUS FOR 20 MIN)) is “active; positive”.
For the molecule `COC1=C(N)C(=O)c2nc(-c3nc(C(=O)O)c(C)c(-c4ccc(OC)c(OC)c4O)c3N)ccc2C1=O`, the mutagenic call by setting is: (Test System: AMES SALMONELLA TYPHIMURIUM, Strain/Indicator: TA102, Metabolic Activation: NONE, Method: STANDARD PLATE) “active; positive”; (Test System: AMES SALMONELLA TYPHIMURIUM, Strain/Indicator: TA2638, Metabolic Activation: NONE, Method: STANDARD PLATE) “active; positive”; (Test System: AMES SALMONELLA TYPHIMURIUM, Strain/Indicator: TA2638A, Metabolic Activation: NONE, Method: STANDARD PLATE) “active; positive”; (Test System: E. COLI, Strain/Indicator: WP2 (PKM101), Metabolic Activation: NONE, Method: STANDARD PLATE) “active; positive”; (Test System: E. COLI, Strain/Indicator: WP2 UVRA (PKM101), Metabolic Activation: NONE, Method: STANDARD PLATE) “active; positive”; (Test System: UDS HUMAN FIBROBLASTS, Strain/Indicator: THY INCORP (NON-S-PHASE), Metabolic Activation: NONE, Method: AUTORADIOGRAPHY) “active; positive”.
